Assays:
cell line HE/89 = assay: DNA fragmentation (DNA ladders) in maize cells inoculated with Agrobacterium; format: cell-based, Zea mays L.; settings: HE/89 cells inoculated with Agrobacterium, agent added
Method: In order to determine the mechanism of cell death induced by Agrobacterium in maize tissues, genomic DNA is extracted from plant suspension cells harvested 24 or 48 hours after inoculation with Agrobacterium. Exposure to Agrobacterium causes DNA fragmentation in both maize lines, with a pattern characteristic of internucleosomal fragmentation, which is considered an early hallmark of programmed cell death. […] Furthermore, maize cells undergoing programmed cell death could not induce cell death of fresh maize embryogenic tissues.
Further evidence for Agrobacterium inducing DNA fragmentation is obtained by investigating the sensitivity of the process to Zn^2+ and Ca^2+. […] These characteristics are fully consistent with the effect of these divalent cations on the endogenous endonucleases responsible for DNA cleavage during apoptosis in animal system. The intensity of the ladder also is decreased by addition of cycloheximide, evidence that the process requires de novo gene expression. […] Fragmentation of DNA during apoptosis is also detected in situ by reagents that react with the exposed hydroxyls on the nucleosome units. 12 day old maize embryos from a proprietary elite line of Lancaster parentage are inoculated with LBA4404 and plated on DG4 medium supplemented with chloramben. Koziel, M.G., & al. 1993. Bio/Technology 11: 194-200. Apoptotic cells are detected by in situ staining with TACS-1 kit (Trevigen), which involves end labeling the DNA fragments by the klenow enzyme using dNTP conjugated to a detectable marker, giving a dark insoluble precipitate indicative of genomic fragmentation. Cullivier, O., Pirianov, G., Kleuser, B., Vanek, P.G., Coso, O.A., Gutking, J.S. and Spiegel, S. (1996) Nature 381, 800-803. Embryos are soaked in 3.7% formadehyde solution and processed as described by the manufacturer. To detect genomic DNA cleavage in situ, fixed embryos are treated with the TACS-1 kit. Fixed cross-sections are first treated with proteinase K for 5 min at room temperature and then dipped for 5 min into 2% hydrogen peroxide to remove endogenous peroxidase. […]

maize type I callus = assay: Inoculation of maize type I callus with or without silver nitrate, survival of tissues; format: cell-based; settings: ½ month old type I callus, co-inoculation 2DG4 + AgNO3, transfer 2DG4 + AgNO3 + Cef, 2 weeks
maize embryos = assay: Inoculation of maize embryos with LBA4404 with or without silver nitrate, callus initiation; format: cell-based
Method: Inhibition of Agrobacterium-induced programmed cell death Preparation of tissues for inoculation with Agrobacterium: Immature embryos (1.2 to 2.2 mm in length) are aseptically excised 14-15 days after pollination from surface-sterilized, greenhouse-grown ears and plated scutellum up on callus initiation medium, 2DG4+5 mg/l chloramben (2DG4-5Chl).
Immature embryos are sterilized as described above and plated on callus initiation medium (2DG4-5Chl) and cultured therein for 1 to 7 days. The resulting tissue is used as samples for inoculation.
Agrobacterium is grown for 3 days on YP medium (5 g/l yeast extract, 10 g/l peptone, 5 g/l NaCl, 15 g/l agar, pH 6.8) supplemented with 50 mg/l spectinomycin and 10 mg/l tetracycline. Bacteria are collected with a loop and suspended in N6 liquid medium at a density ranging from 10^9 to 5 10^9 cells/ml. Agrobacterium cells can also be collected from an overnight culture in YP medium and resuspended in N6 liquid medium.
Maize tissues prepared as described above are inoculated with Agrobacterium. […] Tissues are also inoculated with a 5 μl drop 10^9 to 5×10^9 cells/ml of an Agrobacterium suspension placed on the top of the tissue.

tobacco leaf discs = settings: silver nitrate present during co-cultivation; LBA4404(GIGUP) 10^9 cells/ml
[1] = system: HE/89 maize friable embryogenic callus
Method: The following experiments employ maize inbred lines (Zea mays L.) HE/89 and a line here designated as Elite 1. […] Suspension culture of Elite 1 is initiated from friable embryogenic callus selected from immature embryos. The HE/89 line is grown in a modified liquid N6 medium amended with 500 mg/l Bacto tryptone, 30 g/l sucrose and 0.5 mg/l 2,4-dichlorophenoxy acetic acid (2,4-D) (N6M). The Elite 1 line is grown in N6 liquid medium (Chu et al., 1975) supplemented with 30 g/l sucrose and 2 mg/l 2,4-D (2N63S). The Nicotiana tabacum cell line NT-1 grown in Murashige and Skoog medium supplemented with 2 mg/l of 2,4-D and sucrose (30 g/l) (MS3S) is used as an Agrobacterium-susceptible control. Suspension cultures are maintained in liquid medium on a rotary shaker (120 rpm) and are subcultured every 7 days.
Bacteria are grown in YP medium (5 g/L yeast extract, 10 g/l peptone, 5 g/l NaCl, pH 6.8) for 24 hr at 28° C. […]
Friable embryogenic callus of HE/89 maize and of a proprietary elite inbred maize maintained in liquid medium are incubated with Agrobacterium for 10 min, 1 hr, 24 hr or 48 hrs prior to transfer to cefotaxim-containing medium. […] The presence or absence of necrosis is scored 2, 4 and 7 days after inoculation and the relative intensity of necrosis is expressed as follow: +, rare formation of necrosis; ++, weak necrosis; +++, strong necrosis; ++++, very strong necrosis.

## C[C@@H]1C[C@@H]([C@H](O)CC2CC(=O)NC(=O)C2)C(=O)[C@@H](C)C1 [cycloheximide]
Cell line HE/89
  intensity of DNA ladders (genomic fragmentation): decreased

## [Zn+2] [Zn^2+]
Cell line HE/89
  intensity of DNA ladders (genomic fragmentation): markedly reduced genomic fragmentation

## [Ca+2] [Ca^2+]
Cell line HE/89
  intensity of DNA ladders (genomic fragmentation): increased the intensity of DNA ladders

## O=[N+]([O-])[O-].[Ag+] [AgNO3, silver nitrate]
Maize type I callus; pretreatment 2DG4 + AgNO3
  Score (survival of tissues): 95%
Maize type I callus; pretreatment 2DG4
  Score (survival of tissues): 75%
Maize embryos; embryos plated on medium containing silver nitrate after Agrobacterium inoculation
  embryos able to produce embryogenic calli: About 50%
Maize embryos; no pretreatment, co-inoculation 2DG4, transfer 2DG4 + AgNO3 + Cef, LBA4404 (GIGUP) 10^9 cells/ml, two weeks after inoculation
  Score (callus initiation): 30%
Tobacco leaf discs
  GUS activity in tobacco leaves (Agrobacterium virulence): No significant decrease

## CO/N=C(\C(=O)N[C@@H]1C(=O)N2C(C(=O)O)=C(COC(C)=O)CS[C@H]12)c1csc(N)n1 [cefotaxime]
[1]
  necrosis of maize tissue: does not cause the maize tissue to become necrotic

Reference: patent US20020088029A1, “Plant transformation methods” (priority 1998, published 2002)
